Measured values from ChEMBL document CHEMBL1147957, “Synthesis and antitubercular activity of phenothiazines with reduced binding to dopamine and serotonin receptors” (2007).
≈ marks a conversion by molar mass, not a printed value.

Experiments:
[1] = target: T1, 5-hydroxytryptamine receptor 1A (Homo sapiens) (UniProt P08908); assay: Displacement of [3H]8-OH-DPAT from 5HT1A receptor at 10 uM
T1 sequence (whole entry): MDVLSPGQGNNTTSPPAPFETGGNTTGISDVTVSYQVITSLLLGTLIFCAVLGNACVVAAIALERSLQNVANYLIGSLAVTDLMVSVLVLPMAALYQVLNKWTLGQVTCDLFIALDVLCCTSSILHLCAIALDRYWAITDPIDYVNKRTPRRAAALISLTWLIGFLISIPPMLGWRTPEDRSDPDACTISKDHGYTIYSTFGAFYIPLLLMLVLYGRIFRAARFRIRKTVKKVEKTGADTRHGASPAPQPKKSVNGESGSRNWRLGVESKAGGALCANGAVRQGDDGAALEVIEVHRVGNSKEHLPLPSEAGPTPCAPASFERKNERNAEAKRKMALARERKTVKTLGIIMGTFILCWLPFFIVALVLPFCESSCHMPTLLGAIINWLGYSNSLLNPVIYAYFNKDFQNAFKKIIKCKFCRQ

[2] = system: Mycobacterium tuberculosis; assay: Antitubercular activity against Mycobacterium tuberculosis H37Rv by MABA assay; assay type: functional
[3] = target: T2, 5-hydroxytryptamine receptor 2C (Homo sapiens) (UniProt P28335); assay: Displacement of [3H]mesulergine from 5HT2C receptor at 10 uM
T2 sequence (whole entry): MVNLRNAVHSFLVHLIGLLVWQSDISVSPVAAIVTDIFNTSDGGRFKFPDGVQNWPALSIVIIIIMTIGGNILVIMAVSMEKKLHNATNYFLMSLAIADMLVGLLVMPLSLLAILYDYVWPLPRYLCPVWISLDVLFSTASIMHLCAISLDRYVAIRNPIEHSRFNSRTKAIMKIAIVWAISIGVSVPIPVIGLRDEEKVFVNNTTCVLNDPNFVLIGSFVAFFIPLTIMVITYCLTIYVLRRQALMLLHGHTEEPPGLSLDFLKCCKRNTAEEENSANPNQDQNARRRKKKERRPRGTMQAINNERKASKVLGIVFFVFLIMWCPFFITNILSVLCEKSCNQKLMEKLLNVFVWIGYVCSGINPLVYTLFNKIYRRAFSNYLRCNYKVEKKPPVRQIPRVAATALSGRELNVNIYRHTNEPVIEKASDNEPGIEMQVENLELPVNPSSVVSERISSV

[4] = target: D(2) dopamine receptor (Homo sapiens) (UniProt P14416); assay: Displacement of [3H]YM091512 from dopamine D2 receptor at 10 uM
Sequence of D(2) dopamine receptor (Homo sapiens) (P14416 whole entry): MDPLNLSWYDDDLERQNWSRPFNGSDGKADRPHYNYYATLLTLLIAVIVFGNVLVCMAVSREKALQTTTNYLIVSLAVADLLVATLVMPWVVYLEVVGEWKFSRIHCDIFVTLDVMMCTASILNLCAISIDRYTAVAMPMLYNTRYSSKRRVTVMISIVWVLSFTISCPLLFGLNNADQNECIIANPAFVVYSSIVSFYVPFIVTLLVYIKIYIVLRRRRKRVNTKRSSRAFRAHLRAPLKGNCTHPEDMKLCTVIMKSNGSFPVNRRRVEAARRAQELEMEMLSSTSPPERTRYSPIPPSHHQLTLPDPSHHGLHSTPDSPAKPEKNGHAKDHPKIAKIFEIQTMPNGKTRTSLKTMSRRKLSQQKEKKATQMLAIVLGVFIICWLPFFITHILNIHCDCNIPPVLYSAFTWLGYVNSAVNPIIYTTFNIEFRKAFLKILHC

CSc1ccc2c(c1)Sc1ccccc1N2CC1CCCN(C)C1 (stereo unspecified)
Activity [1]: 67% | MIC [2]: 11.6 µg/mL (≈ 32.5 µM)

CCN(CC)Cc1ccc(CN2c3ccccc3Sc3ccc(C(F)(F)F)cc32)cc1
Activity [3]: 57% | Activity [1]: 23% | MIC [2]: > 10 µg/mL | Activity [4]: 97%

CC1CN(Cc2ccc(CN3c4ccccc4Sc4ccc(C(F)(F)F)cc43)cc2)CC(C)O1 (stereo unspecified)
Activity [3]: 7% | Activity [1]: 0% | MIC [2]: > 20 µg/mL | Activity [4]: 75%

CN(C)CCCN1c2ccccc2Sc2ccc(Cl)cc21.Cl [CHLORPROMAZINE HYDROCHLORIDE]
Activity [3]: 86% | Activity [1]: 44% | MIC [2]: 6 µg/mL | Activity [4]: 96%

CN1CCN(CCCN2c3ccccc3Sc3ccc(C(F)(F)F)cc32)CC1 [TRIFLUOPERAZINE]
MIC [2]: 7.6 µg/mL (≈ 18.7 µM)

CN1CCN(Cc2ccc(CN3c4ccccc4Sc4ccc(C(F)(F)F)cc43)cc2)CC1
Activity [3]: 0% | Activity [1]: 0% | MIC [2]: 15 µg/mL (≈ 31.9 µM) | Activity [4]: 14%

FC(F)(F)c1ccc2c(c1)N(Cc1ccc(CNc3nccs3)cc1)c1ccccc1S2
Activity [3]: 0% | Activity [1]: 0% | MIC [2]: > 10 µg/mL | Activity [4]: 11%

FC(F)(F)c1ccc2c(c1)N(CCCN1CCN(c3ncccn3)CC1)c1ccccc1S2
Activity [3]: 85% | Activity [1]: 94% | MIC [2]: 16 µg/mL (≈ 33.9 µM) | Activity [4]: 50%

CN1CCCC(CN2c3ccccc3Sc3cccnc32)C1 (stereo unspecified)
Activity [3]: 47% | Activity [1]: 19% | MIC [2]: > 10 µg/mL | Activity [4]: 86%

FC(F)(F)c1ccc2c(c1)N(Cc1ccc(CNc3ccccn3)cc1)c1ccccc1S2
Activity [3]: 53% | Activity [1]: 0% | MIC [2]: > 10 µg/mL | Activity [4]: 90%

FC(F)(F)c1ccc2c(c1)N(CCCNc1cccc(Oc3ccccc3)c1)c1ccccc1S2
Activity [3]: 5% | Activity [1]: 0% | MIC [2]: > 20 µg/mL | Activity [4]: 0%

CC(CO)NCCCN1c2ccccc2Sc2ccc(C(F)(F)F)cc21 (stereo unspecified)
Activity [3]: 91% | Activity [1]: 58% | MIC [2]: 4.6 µg/mL (≈ 12 µM) | Activity [4]: 100%

CN(Cc1ccccc1)Cc1ccc(CN2c3ccccc3Sc3ccc(C(F)(F)F)cc32)cc1
Activity [3]: 0% | Activity [1]: 4% | MIC [2]: > 20 µg/mL | Activity [4]: 66%

FC(F)(F)c1ccc2c(c1)N(Cc1ccc(CN3c4ccccc4Sc4ccc(C(F)(F)F)cc43)cc1)c1ccccc1S2
Activity [3]: 0% | Activity [1]: 0% | MIC [2]: 2 µg/mL (≈ 3.14 µM) | Activity [4]: 40%

FC(F)(F)c1ccc2c(c1)N(Cc1ccc(CNc3cccc(Oc4ccccc4)c3)cc1)c1ccccc1S2
Activity [3]: 0% | Activity [1]: 0% | MIC [2]: > 20 µg/mL | Activity [4]: 26%

CN1CCCC(CN2c3ccccc3Sc3ccc(C(F)(F)F)cc32)C1 (stereo unspecified)
Activity [3]: 56% | Activity [1]: 5% | MIC [2]: 7.2 µg/mL (≈ 19 µM) | Activity [4]: 87%

CN(CCCN1c2ccccc2Sc2ccc(C(F)(F)F)cc21)Cc1ccccc1
Activity [3]: 68% | Activity [1]: 31% | MIC [2]: > 20 µg/mL | Activity [4]: 99%

CN1CCCC(CN2c3ccccc3Sc3ccccc32)C1 (stereo unspecified) [MEPAZINE]
Activity [3]: 29% | Activity [1]: 0% | MIC [2]: 17 µg/mL (≈ 54.8 µM) | Activity [4]: 88%

CCN(CC)CCCN1c2ccccc2Sc2ccc(C(F)(F)F)cc21
Activity [3]: 94% | Activity [1]: 63% | MIC [2]: 15 µg/mL (≈ 39.4 µM) | Activity [4]: 100%
